Data as given in patent US20160185717A1, “COMPOUNDS WITH ANTIBACTERIAL ACTIVITY” (FUNDACIÓN MEDINA. CENTRO DE EXCELENCIA EN INVESTIGACIÓN DE …, priority 2013, published 2016).
Values after ≈ are worked out from the molar mass of the structure shown.

What was measured:
[1] = system: A. baumannii 5973; assay: Broth microdilution MIC; assay type: cell-based, Acinetobacter baumannii; conditions: A. baumannii 5973, Clinical isolate
Protocol: (§1) Antibacterial activity of compounds MDN-0057, MDN-0058, MDN-0059 and MDN-0060 was evaluated using the broth microdilution methodology. This method is used to determine minimum inhibitory concentrations (MICs) which are defined as the lowest concentration of an antimicrobial compound that will inhibit the visible growth of a microorganism after overnight incubation.
(§2) In the microbroth dilution assay, microorganisms were selected by streaking bacteria culture from a cryovial into Mueller Hinton II (MHII) agar plate(s) and incubate overnight at 37° C. Thereafter, 3 to 5 characteristic fresh colonies were selected and suspended in 25 mL of MHII broth media for 2 hours shaking at 220 rpm. The 2 hour broth cultures were adjusted to an optical density of 0.111 at 660 nm and then diluted to 1:100 in order to obtain assay inoculums.
(§3) The four compounds evaluated were serially diluted in 100% DMSO with a dilution factor of 2 to provide 10 compound concentrations starting at 8 mg/mL.
(§4) For the assays, 90 μL/well of the appropriated diluted inoculum were mixed with 1.6 μL/well of each compound concentration and 8.4 μL/well of MHII broth media, resulting in an additional dilution of these compounds to yield concentrations in the assay wells from 128 μg/mL to 0.25 μg/mL. After that, the assay plates were read in a Tecan Ultraevolution spectrophotometer at 612 nm for T0 (zero time). Then, the plates were statically incubated at 37° C. for 20 hours. After incubation, they were shaken in a DPC Micromix-5 and read again for Tf (final time). Percentage of growth inhibition was calculated using the following normalization:
(§5) % Inhibition=[1-[(TfSample-T0Sample)−(TfBlank-T0blank)/(TfGrowth-T0Growth)−(TfBlank-T0blank)]×100. • Where, • T0 Sample=the absorbance of the strain growth in the presence of sample measured at zero time (before incubation). • Tf Sample=the absorbance of the strain growth in the presence of sample measured at final time (after incubation) • T0 Growth=the absorbance of the strain growth in the absence of sample measured at zero time (before incubation). • Tf Growth=the absorbance of the strain growth in the absence of sample measured at final time (after incubation). • T0 Blank=the absorbance of the broth medium (blank) measured at zero time (before incubation). • Tf Blank=the absorbance of the broth medium (blank) measured at final time (after incubation).

[2] = system: P. aeruginosa ATCC 27853; assay: Broth microdilution MIC; assay type: cell-based, Pseudomonas aeruginosa; conditions: P. aeruginosa ATCC 27853, wild type
Protocol: as §1, §2, §3, §4, §5

[3] = system: E. coli 219; assay: Broth microdilution MIC; assay type: cell-based, Escherichia coli; conditions: E. coli 219, ΔAcrAB::Tn903kan
Protocol: as §1, §2, §3, §4, §5

[4] = system: E. coli ATCC 25922; assay: Broth microdilution MIC; assay type: cell-based, Escherichia coli; conditions: E. coli ATCC 25922, wild type
Protocol: as §1, §2, §3, §4, §5

[5] = system: A. baumannii 2443; assay: Broth microdilution MIC; assay type: cell-based, Acinetobacter baumannii; conditions: A. baumannii 2443, Clinical isolate
Protocol: as §1, §2, §3, §4, §5

[6] = system: A. baumannii 2444; assay: Broth microdilution MIC; assay type: cell-based, Acinetobacter baumannii; conditions: A. baumannii 2444, ΔadellJK
Protocol: as §1, §2, §3, §4, §5

[7] = system: A. baumannii 2445; assay: Broth microdilution MIC; assay type: cell-based, Acinetobacter baumannii; conditions: A. baumannii 2445, ΔadeABC
Protocol: as §1, §2, §3, §4, §5

[8] = system: A. baumannii 2446; assay: Broth microdilution MIC; assay type: cell-based, Acinetobacter baumannii; conditions: A. baumannii 2446, ΔadeABC, ΔadellJK
Protocol: as §1, §2, §3, §4, §5

[9] = system: A. baumannii ATCC 19606; assay: Broth microdilution MIC; assay type: cell-based, Acinetobacter baumannii; conditions: A. baumannii ATCC 19606, Clinical isolate
Protocol: as §1, §2, §3, §4, §5

[10] = system: A. baumannii ATCC BAA-747; assay: Broth microdilution MIC; assay type: cell-based, Acinetobacter baumannii; conditions: A. baumannii ATCC BAA-747, Clinical isolate
Protocol: as §1, §2, §3, §4, §5

[11] = system: P. aeruginosa 839; assay: Broth microdilution MIC; assay type: cell-based, Pseudomonas aeruginosa; conditions: P. aeruginosa 839, ΔMexAB-OprM
Protocol: as §1, §2, §3, §4, §5

[12] = system: K. pneumoniae 21; assay: Broth microdilution MIC; assay type: cell-based, Klebsiella pneumoniae; conditions: K. pneumoniae 21, permeable strain
Protocol: as §1, §2, §3, §4, §5

[13] = system: K. pneumoniae 847; assay: Broth microdilution MIC; assay type: cell-based, Klebsiella pneumoniae; conditions: K. pneumoniae 847, Clinical isolate
Protocol: as §1, §2, §3, §4, §5

[14] = system: S. aureus ATCC 29213; assay: Broth microdilution MIC; assay type: cell-based, Staphylococcus aureus; conditions: for MIC: S. aureus ATCC 29213, wild type
Protocol: as §1, §2, §3, §4, §5

[15] = system: Escherichia coli acrAB::Tn903 (CB-219); assay: Micro RI (resistance) bioassay on E. coli CB-219; assay type: cell-based
Protocol: (§6) The frequency of resistance to MDN-0057 and MDN-0058 was assessed on Escherichia coli acrAB::Tn903 (CB-219) and wild type (WT) Acinetobacter baumannii (ATCC BAA-747). For this purpose, the Minimum Inhibitory Concentration of MDN-0057 versus each strain was determined by broth microdilution as described in Clinical Laboratory Standards Institute publication M07-A9, Vol. 32, No. 2., “Methods for Dilution Antimicrobial Susceptibility Tests for Bacteria that Grow Aerobically; Approved Standard—Ninth Edition,” January 2012. Six-well plates containing Mueller Hinton II agar (5 mL per well) were prepared with MDN-0057 or MDN-0058 at concentrations 4-fold and 8-fold above the MIC. Cultures were grown to late log phase and spread on the agar. Plates were incubated at 37° C. and examined after one and two days of incubation.
(§7) Six to eight isolates from each species were obtained by re-streaking growth from the plates on antibiotic-free tryptic soy agar plates, and MICs of MDN-0057 versus the isolates were subsequently determined. MICs of the E. coli isolates were elevated at least 16-64-fold relative to their parent strain, CB-219.

[16] = system: wild type (WT) Acinetobacter baumannii (ATCC BAA-747); assay: Resistance bioassay on A. baumannii; assay type: cell-based
Protocol: as §6, §7

[17] = system: RNA synthesis in E. coli acrAB::Tn903; assay: Macromolecular labeling assay, RNA synthesis; assay type: cell-based, Escherichia coli; conditions: at up to 8-fold the MIC, [3H] uridine
Protocol: (§8) The macromolecular synthesis assay, in which the inhibition of the intracellular building blocks of macromolecules are measured, provides guidance for understanding the broad MOA of compounds
(§9) The inhibitory effect on synthesis of macromolecules in the lipid, cell wall, DNA, RNA and protein synthesis pathways was determined in growing cells of E. coli acrAB::Tn903. Cells were grown at 35° C. overnight on Trypticase Soy agar, and this culture was used to inoculate 15 ml of Mueller Hinton broth II (MHB). The culture was grown to early exponential growth phase (OD600=0.2 to 0.3) while incubating in a shaker at 35° C. and 200 rpm.
(§10) Cells in early exponential phase were exposed to MDN-0057, and their incorporation of radioactive precursors in each pathway was determined. Rifampicin, Ciprofloxacin, Tetracycline, Imipenem and Irgasan were included as positive controls for inhibition of RNA, DNA, protein, cell wall and lipid synthesis, respectively. (FIG. 1)
(§11) DNA, RNA, and protein synthesis: When cells reached early exponential phase, 100 μL of culture was added to triplicate wells containing various concentrations of MDN-0057 or control antibiotics (2.5 μL) at 40× the final concentration in 100% DMSO or deionized water (dH2O). […] After washing five times with 200 μL per well of cold 5% TCA, the filters were allowed to dry, and then counted using a Packard Top Count microplate scintillation counter.

[18] = system: DNA synthesis in E. coli acrAB::Tn903; assay: Macromolecular labeling assay, DNA synthesis; assay type: cell-based, Escherichia coli; conditions: at up to 8-fold the MIC, [3H] thymidine
Protocol: as §8, §9, §10, §11

[19] = system: protein synthesis in E. coli acrAB::Tn903; assay: Macromolecular labeling assay, protein synthesis; assay type: cell-based, Escherichia coli; conditions: at up to 8-fold the MIC, [3H] leucine
Protocol: as §8, §9, §10, §11

[20] = system: lipid synthesis in E. coli acrAB::Tn903; assay: Macromolecular labeling assay, lipid synthesis; assay type: cell-based, Escherichia coli; conditions: at up to 8-fold the MIC, [3H] glycerol
Protocol: as §8, §9, §10
Lipid synthesis: Bacterial cells were grown to early exponential growth phase in MHB and 100 μL was added to 1.5 mL eppendorf tubes (in triplicate) containing various concentrations of MDN-0057 or control antibiotics as described above. Following a 5 min incubation at room temperature, [3H] glycerol was added at 0.5 μCi per reaction. […] Samples were then counted via liquid scintillation counting.

[21] = system: cell wall synthesis in E. coli acrAB::Tn903; assay: Macromolecular labeling assay, cell wall synthesis; assay type: cell-based, Escherichia coli
Protocol: as §8, §9
Cells in early exponential phase were exposed to MDN-0057, and their incorporation of radioactive precursors in each pathway was determined. […]
Cell wall synthesis: Bacterial cells in early exponential growth phase were transferred to M9 minimal medium and added to 1.5 ml eppendorf tubes (100 μl/tube) containing various concentrations of MDN-0057 or control antibiotics (2.5 μl) at 40× the final concentration in 100% DMSO or dH2O as described above. […] After washing three times with 5 ml of 0.1% SDS, the filters were rinsed two times with 5 mL of dH2O, allowed to dry, and then counted using a Beckman LS3801 liquid scintillation counter.

[22] = E. coli_219, Micro RI, Isolate #1_4X
[23] = E. coli_219, Micro RI, Isolate #2_8X
[24] = E. coli_219, Micro RI, Isolate #3_4X
[25] = E. coli_219, Micro RI, Isolate #4_4X
[26] = E. coli_219, Micro RI, Isolate #5_8X
[27] = six to eight isolates re-streaked from the plates

Row | SMILES | MIC [1] [µg/mL] | MIC [2] [µg/mL] | MIC [3] [µg/mL] | MIC [4] [µg/mL] | MIC [5] [µg/mL] | MIC [6] [µg/mL] | MIC [7] [µg/mL] | MIC [8] [µg/mL] | MIC [9] [µg/mL] | MIC [10] [µg/mL] | MIC [11] [µg/mL] | MIC [12] [µg/mL] | MIC [13] [µg/mL] | MIC against S. aureus (No activity) [14] [µg/mL] | MIC [14] [µg/mL] | MIC [15, 22] [µg/mL] | MIC [15, 23] [µg/mL] | MIC [15, 24] [µg/mL] | MIC [15, 25] [µg/mL] | MIC [15, 26] [µg/mL] | further results
1 | [C-]#[N+]C(=C)C(Cc1ccc(OC)cc1)([N+]#[C-])C1CC(O)CCC1OC(C)=O (centres unmarked) [MDN-0059] | 0.5 to 1 | 16 (≈ 43.4 µM) | – | – | – | – | – | – | – | – | – | – | – | – | – | – | – | – | – | – | –
2 | [C-]#[N+]C(=C)C(Cc1ccc(OC)cc1)([N+]#[C-])C1CC(O)C=CC1OC(=O)CO (centres unmarked) [MDN-0058] | 0.25 (≈ 0.654 µM) | 64 (≈ 167 µM) | 0.25 to 0.5 | 16 (≈ 41.8 µM) | 2 (≈ 5.23 µM) | 0.25 to 1 | 2 to 8 | <0.06 | 2 to 8 | 1 to 16 | 1 to 4 | 0.5 (≈ 1.31 µM) | 64 (≈ 167 µM) | 128 (≈ 335 µM) | >128 | 0.25 (≈ 0.654 µM) | 0.25 (≈ 0.654 µM) | 0.25 (≈ 0.654 µM) | 0.25 (≈ 0.654 µM) | 0.25 (≈ 0.654 µM) | MIC ([15]; E. coli_219, Parent): 0.25 to 0.5 µg/mL
3 | [C-]#[N+]C(=C)C(Cc1ccc(OC)cc1)([N+]#[C-])C1CC(O)CCC1OC(=O)CO (centres unmarked) [MDN-0057] | 0.25 (≈ 0.65 µM) | 2 to 8 | 0.125 to 0.5 | 16 to 64 | 4 (≈ 10.4 µM) | 0.25 (≈ 0.65 µM) | 2 (≈ 5.2 µM) | <0.06 | 2 to 4 | 2 to 4 | 1 to 2 | 0.25 (≈ 0.65 µM) | 64 (≈ 166 µM) | 128 (≈ 333 µM) | >128 | 0.25 (≈ 0.65 µM) | 0.25 (≈ 0.65 µM) | 0.25 (≈ 0.65 µM) | 0.25 (≈ 0.65 µM) | 0.25 (≈ 0.65 µM) | Growth on agar containing compound (frequency of resistance) ([15]; E. coli acrAB::Tn903, 4-fold and 8-fold above the broth MIC, after 48 hours of incubation): pinpoint colonies that were too numerous to count; MIC ([15]; E. coli_219, Parent): 0.125 to 0.5 µg/mL; Elevation of MICs of the E. coli isolates relative to parent strain CB-219 [15, 27]: 16-64 fold; Growth on agar containing compound (frequency of resistance) ([16]; A. baumannii, 4-fold and 8-fold above the broth MIC, after 24 hours of incubation): a lawn of colonies was apparent; MICs of the A. baumannii isolates compared with parent strain A. baumannii BAA-747 [16, 27]: not significantly different; Inhibition of RNA synthesis [17]: Little or no inhibition; Inhibition of DNA synthesis [18]: Little or no inhibition; Inhibition of protein synthesis [19]: Little or no inhibition; Inhibition of lipid synthesis [20]: Little or no inhibition; Maximum inhibition of cell wall synthesis ([21]; at 2 to 8-fold the MIC, [14C] N-acetylglucosamine, apparent dose-response): ca. 75%; Inhibition of Macromolecular Synthesis (FIG. 1 legend) ([21]; at 2× MIC, strain E. coli acrAB::Tn903): signal for Cell Wall Biosynthesis
4 | [C-]#[N+]C(=C)C(Cc1ccc(OC)cc1)([N+]#[C-])C1CC(O)C=CC1OC(C)=O (centres unmarked) [MDN-0060] | 1 to 2 | 32 to 64 | – | – | – | – | – | – | – | – | – | – | – | – | – | – | – | – | – | – | –
